Measurements reported in patent publication US20220380347A1, “INHIBITORS OF CYSTEINE PROTEASES AND METHODS OF USE THEREOF” (Pardes Biosciences, Inc., priority 2020, published 2022).
Read-outs that look alike come from different tables or passages of the source.

Key:
HCoV 229E = HCoV 229E cytopathic effect (CPE) assay, CellTiter Glo; type: cell-based, human coronavirus (HCov) 229E; details: protection of virus-induced CPE
Description: Example 238: Evaluation of antiviral activity of compounds against human coronavirus (HCov) 229E and OC43 in the cytopathic effect (CPE) assays
Compounds were assayed using standard methods against multiple coronaviral strains, including HCoV 229E and OC43 strains. The antiviral activity of compounds was calculated based on the protection of the virus-induced CPE at each concentration normalized by the virus control.
Cytopathic effect (CPE) was measured by CellTiter Glo following the manufacturer's manual. The antiviral activity of compounds was calculated based on the protection of the virus-induced CPE at each concentration normalized by the virus control.
Cell viability was measured with CellTiter Glo.

229E Mpro = 229E Mpro (Human coronavirus 229E, UniProt P0C6X1); test: 229E Mpro enzymatic assay (standard methods, SARS-CoV2 Mpro assay given as exemplary); type: biochemical, human coronavirus (HCov) 229E
How it was run: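 IC50 for 229E Mpro by standard methods; exemplary SARS-CoV-2 protocol used C-His6-tagged Mpro from E. coli, 25 nM enzyme, 25 μM substrate (Km 13.5 μM), in Tris-HCl pH 7.3, NaCl, EDTA, TCEP, 0.1% BSA. Inhibition normalised to no-compound and full-effect controls; four-parameter fit.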

[1] = target: COVID-19 (nCoV-2019, SARS-CoV2) Mpro (Severe acute respiratory syndrome coronavirus 2, UniProt P0DTD1); test: COVID-19 (nCoV-2019, SARS-CoV2) Mpro enzymatic assay; type: biochemical; details: 25 nM Mpro, 25 μM substrate; read-out: COVID-19 Mpro IC50
HCov OC43 = test: HCoV OC43 cytopathic effect (CPE) assay, CellTiter Glo; type: cell-based, human coronavirus (HCov) OC43
[2] = read-out: OC43 IC50 (uM) MEDIAN, median
[3] = Betacoronavirus 1, OC43, read-out: OC43 IC50 (uM) MEDIAN, median

Chain of 229E Mpro (P0C6X1 2966-3267): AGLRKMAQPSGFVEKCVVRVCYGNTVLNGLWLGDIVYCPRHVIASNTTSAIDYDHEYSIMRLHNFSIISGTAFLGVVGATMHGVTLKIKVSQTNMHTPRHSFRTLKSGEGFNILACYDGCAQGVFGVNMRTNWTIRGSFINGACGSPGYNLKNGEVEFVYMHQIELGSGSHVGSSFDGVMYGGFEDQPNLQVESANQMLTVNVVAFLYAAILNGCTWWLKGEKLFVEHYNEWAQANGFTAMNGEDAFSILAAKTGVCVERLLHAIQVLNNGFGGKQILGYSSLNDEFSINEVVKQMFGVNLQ

Structure (SMILES)	EC50 (HCoV 229E; unidentified human coronavirus)	EC50 (229E Mpro; 229E Mpro EC50)	IC50 [1]	other results
CC(C)(C)c1ccc(N(C(=O)C2CCC(F)(F)CN2C#N)C(C(=O)NC2CCCCC2)c2cccnc2)cc1 (centres unmarked) [Compound 885]	2 to 10 µM	–	–	–
COc1ccc(NC(=O)C(c2cccnc2)N(C(=O)[C@H]2CCCN2C#N)c2ccc(C(C)(C)C)cc2)cn1 (stereo partly drawn) [Compound 407, (2R)—N-(4-(tert-butyl)phenyl)-1-cyano-N-(2-((6-methoxypyridin-3-yl)amino)-2-oxo-1-(pyridin-3-yl)ethyl)pyrrolidine-2-carboxamide]	< 2 µM	–	–	–
N#CN1C[C@H](O)C[C@@H]1C(=O)N(c1ccc(C2(C(F)(F)F)CC2)cc1)C(C(=O)NC1CCC(F)(F)CC1)c1cncc(F)c1 (single isomer, unassigned) [815 Isomer 1]	< 2 µM	–	–	–
CC(C)(C)c1ccc(N(C(=O)[C@H]2CCCN2C#N)C(C(=O)NC2CCCCC2)c2cncc(F)c2)cc1 (stereo partly drawn) [Compound 475, (2R)—N-(4-(tert-butyl)phenyl)-1-cyano-N-(2-(cyclohexylamino)-1-(5-fluoropyridin-3-yl)-2-oxoethyl)pyrrolidine-2-carboxamide]	< 2 µM	–	–	–
CC(C)(C)c1ccc(N(C(=O)[C@H]2CCCN2C#N)C(C(=O)NCCN2CCOCC2)c2cccnc2)cc1 (stereo partly drawn) [Compound 391, (2R)—N-(4-(tert-butyl)phenyl)-1-cyano-N-(2-((2-morpholinoethyl)amino)-2-oxo-1-(pyridin-3-yl)ethyl)pyrrolidine-2-carboxamide]	2 to 10 µM	–	–	–
N#CN1C[C@H](O)C[C@@H]1C(=O)N(c1ccc(C2(C(F)(F)F)CC2)cc1)C(C(=O)NC1CCC(F)(F)CC1)c1cncc(F)c1 (single isomer, unassigned) [815 Isomer 2]	–	–	–	EC50 (HCoV 229E): < 2 µM
CC(C)(C)c1ccc(N(C(=O)[C@H]2Cc3ccccc3CN2C#N)C(C(=O)NC2CCCCC2)c2cccnc2)cc1 (single isomer, unassigned) [Compound 374]	< 2 µM	–	–	–
CO[C@@H]1C[C@H](C(=O)N(c2ccc(S(F)(F)(F)(F)F)cc2)C(C(=O)N2CCNCC2)c2cccnc2)N(C#N)C1 (some centres unmarked) [Compound 1149]	< 2 µM	–	–	–
O=C(NC1CCCCC1)C(c1cnnc2ccccc12)N(C(=O)[C@H]1C[C@@H](O)CN1)c1ccc(S(F)(F)(F)(F)F)cc1 (some centres unmarked) [Compound 988]	< 2 µM	–	–	–
COc1cncc(C(C(=O)NC2CCCCC2)N(C(=O)[C@H]2C[C@@H](O)CN2C#N)c2ccc(C(C)(C)C)cc2)c1 (some centres unmarked) [Compound 992]	2 to 10 µM	–	–	–
CC(C)(C)c1ccc(N(C(=O)[C@H]2CCCN2C#N)C(C(=O)NC2CCCCC2)c2cccnc2)cc1 (single isomer, unassigned) [Compound 1248 Isomer 1]	< 2 µM	–	–	–
CO[C@@H]1C[C@H](C(=O)N(c2ccc(S(F)(F)(F)(F)F)cc2)C(C(=O)N2CCCC3(COC3)C2)c2cccnc2)N(C#N)C1 (single isomer, unassigned) [Compound 1175]	–	< 2 µM	2 to 10 µM	IC50 (HCov OC43; [2]): < 2 µM
CC(C)(C)c1ccc(N(C(=O)[C@H]2CCCN2C#N)C(C(=O)NC2CCCCC2)c2cncc(F)c2)cc1 (single isomer, unassigned) [475 Isomer 1]	–	< 2 µM	< 2 µM	IC50 (HCov OC43; [2]): 2 to 10 µM
[2H]C(C(=O)NC1CCOCC1)(c1cnccn1)N(C(=O)[C@H]1C[C@@](C)(O)CN1C#N)c1ccc(S(F)(F)(F)(F)F)cc1 (stereo partly drawn) [Compound 1305, (2R,4R)-1-cyano-N-[1-deuterio-2-oxo-1-pyrazin-2-yl-2-(tetrahydropyran-4-ylamino)ethyl]-4-hydroxy-4-methyl-N-[4-(pentafluoro-λ^6-sulfanyl)phenyl]pyrrolidine-2-carboxamide]	–	> 30 µM	> 30 µM	IC50 (HCov OC43; [3]): > 30 µM
N#CN1C[C@@H](OCc2ccccc2)C[C@@H]1C(=O)N(c1ccc(S(F)(F)(F)(F)F)cc1)C(C(=O)NC1CCC(F)(F)CC1)c1cncc(F)c1 (single isomer, unassigned) [1280 Isomer 1]	–	< 2 µM	< 2 µM	IC50 (HCov OC43; [3]): < 2 µM
O=C(NC1CCC(F)(F)CC1)C(c1cncc(F)c1)N(C(=O)c1cnc[nH]1)c1ccc(C2CC2)cc1F (single isomer, unassigned) [1336 Isomer 1, N-(4-cyclopropyl-2-fluorophenyl)-N-(2-((4,4-difluorocyclohexyl)amino)-1-(5-fluoropyridin-3-yl)-2-oxoethyl)-1H-imidazole-5-carboxamide]	–	2 to 10 µM	10 to 30 µM	IC50 (HCov OC43; [3]): > 30 µM
CN1CC(C(=O)N(c2ccc(S(F)(F)(F)(F)F)cc2)C(C(=O)NC2CCC(F)(F)CC2)c2cncc(F)c2)N(C#N)CC1=O (single isomer, unassigned) [Compound 1161 Isomer 1, 1-cyano-N-[2-[(4,4-difluorocyclohexyl)amino]-1-(5-fluoro-3-pyridyl)-2-oxo-ethyl]-4-methyl-5-oxo-N-[4-(pentafluoro-λ6-sulfanyl)phenyl]piperazine-2-carboxamide]	–	< 2 µM	< 2 µM	IC50 (HCov OC43; read-out: OC43 IC50 (uM) MEDIAN, median, listed as 1161 Isomer 1): < 2 µM
CC(C)(C)c1ccc(N(C(=O)[C@H]2CCCN2C#N)C(C(=O)NCC2COC2)c2cccnc2)cc1 (single isomer, unassigned) [Compound 419 Isomer 2]	–	–	2 to 10 µM	EC50 (229E Mpro; read-out: 229E Mpro EC50): < 2 µM; IC50 (HCov OC43; [2]): 2 to 10 µM
CC(C)(C)c1ccc(N(C(=O)[C@H]2Cc3ccccc3CN2C#N)C(C(=O)NC2CCCCC2)c2cccnc2)cc1 (single isomer, unassigned) [Compound 374 Isomer 1]	–	> 30 µM	> 30 µM	IC50 (HCov OC43; read-out: OC43 IC50 (uM) MEDIAN, median, listed as 374 Isomer 1): > 30 µM
COc1ccc(NC(=O)C(c2cccnc2)N(C(=O)[C@H]2CCCN2C#N)c2ccc(C(C)(C)C)cc2)cn1 (single isomer, unassigned) [Compound 407 Isomer 2]	–	10 to 30 µM	> 30 µM	IC50 (HCov OC43; read-out: OC43 IC50 (uM) MEDIAN, median, listed as 407 Isomer 2): > 30 µM
C[C@@H]1OCCN(C#N)[C@H]1C(=O)N(c1ccc(S(F)(F)(F)(F)F)cc1)C(C(=O)NC1CCOCC1)c1cncc(F)c1 (some centres unmarked) [Compound 1419]	–	< 2 µM	< 2 µM	IC50 (HCov OC43; [3]): 2 to 10 µM
CO[C@@H]1C[C@H](C(=O)N(c2ccc(S(F)(F)(F)(F)F)cc2)C(C(=O)N(CCO)C2CCC(F)(F)CC2)c2cccnc2)N(C(=O)OCc2ccccc2)C1 (stereo partly drawn) [Compound 1244, Benzyl (2R,4R)-2-[[2-[(4,4-difluorocyclohexyl)-(2-hydroxyethyl)amino]-2-oxo-1-(3-pyridyl)ethyl]-[4-(pentafluoro-λ^6-sulfanyl)phenyl]carbamoyl]-4-methoxy-pyrrolidine-1-carboxylate]	–	> 30 µM	> 30 µM	IC50 (HCov OC43; [3]): > 30 µM
CO[C@@H]1C[C@H](C(=O)N(c2ccc(S(F)(F)(F)(F)F)cc2F)C(C(=O)NC2CCC(F)(F)CC2)c2cccnc2)N(C#N)C1 (single isomer, unassigned) [1288 Isomer 1]	–	< 2 µM	< 2 µM	IC50 (HCov OC43; [3]): < 2 µM
C[C@@]1(O)C[C@H](C(=O)N(c2ccc(-c3ccccc3)cc2)C(C(=O)NC2CCC(F)(F)CC2)c2cncc(F)c2)N(C#N)C1 (single isomer, unassigned) [1330 Isomer 2]	–	2 to 10 µM	2 to 10 µM	IC50 (HCov OC43; [2]): 10 to 30 µM
Cc1c[nH]c2cc(N(C(=O)[C@H]3C[C@@H](O)CN3C#N)C(C(=O)NC3CCC(F)(F)CC3)c3cncc(F)c3)ccc12 (single isomer, unassigned) [Compound 747b Isomer 2]	–	–	2 to 10 µM	EC50 (229E Mpro; read-out: 229E Mpro EC50): < 2 µM; IC50 (HCov OC43; [2]): 2 to 10 µM
CO[C@@H]1C[C@H](C(=O)N(c2ccc(S(F)(F)(F)(F)F)cc2)C(C(=O)N(C)CC(=O)NC2CC2)c2cccnc2)N(C#N)C1 (single isomer, unassigned) [Compound 1122]	–	< 2 µM	< 2 µM	IC50 (HCov OC43; [3]): < 2 µM
